Laboratory results published in patent US8632612B2, “Compositions for dyeing keratin fibers” (Segetis, Inc., priority 2010, dated 2014).

How the values were obtained:
[1] = Dissolution of hair dye moieties in neat ketal solvents and storage at room temperature (Example 7); format: physicochemical
Source text: The respective hair dye compositions and their methods of manufacturing are discussed in detail below.

[2] = Saturated solubility of oxidation dye intermediates in hair dye formulations (UV-Vis against calibration curve); conditions: 10 minutes stirring, three replications

Row | dissolution in ketal ([1]; 5% solids in Et-LGK at room temperature) | dissolution in ketal ([1]; 10% solids in Bu-LGK at 80° C. with agitation) | dissolution in ketal ([1]; 10% solids in Et-LGK at 80° C. with agitation) | dissolution in ketal ([1]; 10% solids in Et-LPK at room temperature with agitation) | Compound | dissolution in ketal ([1]; 5% solids in Et-LPK at 80° C.) | dissolution in ketal ([1]; 1% solids in Et-LPK at 80° C.) | solubility after storage ([1]; 5% and 1% solids in Et-LPK, storage at room temperature) | dissolution in ketal ([1]; 5% solids in Bu-LGK at 80° C.) | solubility after storage ([1]; 5% solids in Et-LGK (dissolved at 80° C.), 24 hours of storage at room temperature) | dissolution in ketal ([1]; 5% solids in Et-LGK at 80° C.) | dissolution in ketal ([1]; 25% solids in Bu-LGK at 80° C.) | Average Solubility ([2]; in formulation 5A (7% Et-LGK), pH 10.2, 27° C.) [% wt./wt.] | Average Solubility ([2]; in formulation 5B (7% Et-LGK), pH 8.5, 27° C.) [% wt./wt.] | Average Solubility ([2]; in formulation 6A (7% Et-LPK), pH 10.2, 27° C.) [% wt./wt.] | Average Solubility ([2]; in formulation 6B (7% Et-LPK), pH 8.5, 27° C.) [% wt./wt.]
1 | dissolved |  |  |  | Nc1cccc(O)c1 [m-Aminophenol] | dissolved |  |  |  |  |  |  |  |  |  | 
2 |  | dissolved | dissolved | dissolved | Oc1cccc(O)c1 [Resorcinol] |  |  |  |  |  |  |  |  |  |  | 
3 |  |  |  |  | Nc1ccc(N)cc1 [p-phenylenediamine] | did not completely dissolve | did not completely dissolve | a precipitant remained | dissolved | still soluble | dissolved | partially dissolved | 0.07 | 0.07 | 0 | <0.01
